Key:
Assay type in all cases: functional
Digitaria sanguinalis = assay: Herbicidal activity against three-leaf stage Digitaria sanguinalis (hairy crabgrass) exposed to foliar compound spraying at 1000 ppm measured 10 days after compound treatment
Ipomoea purpurea = assay: Herbicidal activity against three-leaf stage Ipomoea purpurea (common morning-glory) exposed to foliar compound spraying at 1000 ppm measured 10 days after compound treatment
Sorghum halepense = assay: Herbicidal activity against three-leaf stage Sorghum halepense (Johnson grass) exposed to foliar compound spraying at 1000 ppm measured 10 days after compound treatment
Echinochloa crus-galli = assay: Herbicidal activity against three-leaf stage Echinochloa crus-galli (barnyard grass) exposed to foliar compound spraying at 1000 ppm measured 10 days after compound treatment
Ambrosia artemisiifolia = assay: Herbicidal activity against three-leaf stage Ambrosia artemisiifolia (ragweed) exposed to foliar compound spraying at 1000 ppm measured 10 days after compound treatment
Setaria viridis = assay: Herbicidal activity against three-leaf stage Setaria viridis (green foxtail) exposed to foliar compound spraying at 1000 ppm measured 10 days after compound treatment
Abutilon theophrasti = assay: Herbicidal activity against three-leaf stage Abutilon theophrasti (velvetleaf) exposed to foliar compound spraying at 1000 ppm measured 10 days after compound treatment
Xanthium strumarium = assay: Herbicidal activity against three-leaf stage Xanthium strumarium (cocklebur) exposed to foliar compound spraying at 1000 ppm measured 10 days after compound treatment
Solanum nigrum = assay: Herbicidal activity against three-leaf stage Solanum nigrum (black nightshade) exposed to foliar compound spraying at 1000 ppm measured 10 days after compound treatment
Panicum dichotomiflorum = assay: Herbicidal activity against three-leaf stage Panicum dichotomiflorum exposed to foliar compound spraying at 1000 ppm measured 10 days after compound treatment

SMILES | Activity (Digitaria sanguinalis) [%] | Activity (Ipomoea purpurea) [%] | Activity (Sorghum halepense) [%] | Activity (Echinochloa crus-galli) [%] | Activity (Ambrosia artemisiifolia) [%] | Activity (Setaria viridis) [%] | Activity (Abutilon theophrasti) [%] | Activity (Xanthium strumarium) [%] | Activity (Solanum nigrum) [%] | Activity (Panicum dichotomiflorum) [%]
O=C1NC(NCc2ccccc2)=N[C@]12O[C@H](CO)[C@@H](O)[C@H]2O | 0 | 10 | 0 | 0 | 95 | 0 | 0 | 95 | 30 | 0
O=C1NC[C@]2(N1)O[C@H](CO)[C@@H](O)[C@H]2O | 0 | 0 | 10 | 10 | 10 | 10 | 10 | 0 | 10 | 10
O=C1NC(=O)[C@]2(N1)O[C@H](CO)[C@@H](O)[C@H]2O [HYDANTOCIDIN] | 95 | 95 | 95 | 95 | 95 | 95 | 95 | 95 | 95 | 95

From ChEMBL document CHEMBL3045629, “Synthesis and Herbicidal Activity of Hydantocidin Analogues: Modification of the Carbonyl Groups in Spirohydantoin” (1995)
